Compound: CC(C)N(CCCNC(=O)Nc1ccc(C(C)(C)C)cc1)C[C@H]1O[C@@H](n2ccc3c(N)ncnc32)[C@H](O)[C@@H]1O + CS(=O)(=O)CCNCc1ccc(-c2ccc3ncnc(Nc4ccc(OCc5cccc(F)c5)c(Cl)c4)c3c2)o1 [Lapatinib] (partner 2 µM)
Experiment: relative viability (nuclei count vs DMSO), 5 days (fraction); higher = more cells survive
Details: first compound 0.08 µM
In short: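 Relative viability divides the nuclei count in treated wells by that in vehicle wells. Lung cancer cell lines were seeded in 1536-well plates, dosed by pin tool the next day, and fixed and stained after 5 days in one step with final 0.05% Triton X-100, 1% formaldehyde and 1 ug/ml Hoechst. Dosing was a single drug or a fixed anchor-drug dose plus five library-drug doses (not always all listed) in √10 steps, and values are medians of duplicate plates imaged at 4×.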

| Cell Line | relative viability |
| --- | --- |
| NCI-H2085 | 0.782 |
| HCC-15 | 0.864 |
| NCI-H1793 | 0.607 |
| RERF-LC-KJ | 0.894 |
| EKVX | 0.205 |
| LC-2-ad | 0.937 |
| NCI-H1563 | 0.862 |
| NCI-H1944 | 0.764 |
| NCI-H1975 | 0.752 |
| SW 1573 | 1.05 |
| ABC-1 | 1.31 |
| NCI-H358 | 0.433 |
| NCI-H727 | 0.922 |
| SK-LU-1 | 0.892 |

Same assay, conditions: first compound 0.253 µM

| Cell Line | relative viability |
| --- | --- |
| NCI-H1299 | 0.948 |
| NCI-H661 | 0.467 |
| CAL-12T | 0.477 |
| NCI-H1651 | 0.727 |
| EPLC-272H | 0.81 |
| NCI-H1792 | 0.851 |
| NCI-H1355 | 0.975 |
| NCI-H322M | 0.591 |
| NCI-H1437 | 0.77 |
| NCI-H1755 | 1.06 |
| NCI-H2085 | 0.681 |
| HCC-15 | 0.876 |
| RERF-LC-KJ | 0.841 |
| EKVX | 0.202 |
| LC-2-ad | 0.906 |
| NCI-H1563 | 0.836 |
| NCI-H1944 | 0.88 |
| NCI-H1975 | 0.805 |
| SW 1573 | 1.09 |
| ABC-1 | 0.936 |
| NCI-H358 | 0.443 |
| NCI-H727 | 0.821 |
| SK-LU-1 | 0.887 |

Same assay, conditions: first compound 0.8 µM

| Cell Line | relative viability |
| --- | --- |
| NCI-H1299 | 0.914 |
| NCI-H661 | 0.519 |
| CAL-12T | 0.572 |
| NCI-H1651 | 0.586 |
| EPLC-272H | 0.823 |
| NCI-H23 | 1.22 |
| NCI-H1792 | 0.839 |
| NCI-H322M | 0.607 |
| NCI-H1437 | 0.773 |
| NCI-H1755 | 0.841 |
| NCI-H2085 | 0.747 |
| HCC-15 | 0.68 |
| NCI-H1793 | 0.554 |
| RERF-LC-KJ | 0.861 |
| EKVX | 0.185 |
| LC-2-ad | 0.925 |
| NCI-H1563 | 0.742 |
| NCI-H1944 | 0.652 |
| NCI-H1975 | 0.473 |
| SW 1573 | 1.09 |
| ABC-1 | 0.847 |
| NCI-H358 | 0.427 |
| NCI-H727 | 0.804 |
| SK-LU-1 | 0.989 |

Same assay, conditions: first compound 2.53 µM

| Cell Line | relative viability |
| --- | --- |
| NCI-H1299 | 0.919 |
| NCI-H661 | 0.404 |
| CAL-12T | 0.625 |
| NCI-H1651 | 0.779 |
| EPLC-272H | 0.981 |
| NCI-H23 | 1.21 |
| NCI-H1792 | 0.831 |
| NCI-H1355 | 1 |
| NCI-H322M | 0.564 |
| NCI-H1437 | 0.722 |
| NCI-H1755 | 0.979 |
| NCI-H2085 | 0.858 |
| HCC-15 | 0.818 |
| NCI-H1793 | 0.599 |
| RERF-LC-KJ | 0.911 |
| EKVX | 0.206 |
| LC-2-ad | 0.966 |
| NCI-H1563 | 1.05 |
| NCI-H1944 | 0.847 |
| NCI-H1975 | 0.752 |
| SW 1573 | 1.05 |
| ABC-1 | 1.13 |
| NCI-H358 | 0.357 |
| NCI-H727 | 0.973 |
| SK-LU-1 | 1.13 |

Same assay, conditions: first compound 8 µM

| Cell Line | relative viability |
| --- | --- |
| NCI-H1299 | 0.891 |
| NCI-H661 | 0.523 |
| CAL-12T | 0.652 |
| NCI-H1651 | 0.93 |
| EPLC-272H | 1.11 |
| NCI-H23 | 0.955 |
| NCI-H1792 | 0.902 |
| NCI-H1355 | 0.857 |
| NCI-H322M | 0.607 |
| NCI-H1437 | 0.715 |
| NCI-H1755 | 0.944 |
| NCI-H2085 | 0.798 |
| HCC-15 | 0.804 |
| NCI-H1793 | 0.636 |
| RERF-LC-KJ | 0.829 |
| EKVX | 0.212 |
| LC-2-ad | 0.835 |
| NCI-H1563 | 0.915 |
| NCI-H1944 | 0.795 |
| NCI-H1975 | 0.656 |
| SW 1573 | 1.16 |
| ABC-1 | 1.12 |
| NCI-H358 | 0.393 |
| NCI-H727 | 0.686 |
| SK-LU-1 | 0.748 |

— the supplement of paper PMC10307832
